The target of assay [1] is isolated recombinant JAK1 kinase domain (Homo sapiens (Human), UniProt P23458). The assay can be described thus: JAK1 enzyme assay (Caliper LabChip, Ki). The class given is biochemical. To be noted: read-out: JAK1 Ki. Put shortly: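 Recombinant human JAK1 kinase domain phosphorylating an N-terminally 5-carboxyfluorescein-labelled JAK3-derived peptide, 30 min at 22 °C, stopped with EDTA (50 mM final). Phosphorylated fraction of total peptide read by Caliper LabChip mobility shift; Ki from Morrison tight-binding fit corrected for ATP competition (Ki=Ki,app/(1+[ATP]/Km,app)).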

Assay [2] addresses isolated recombinant JAK2 kinase domain (Homo sapiens (Human), UniProt O60674). The assay can be described thus: JAK2 enzyme assay (Caliper LabChip, Ki). Type of assay: biochemical. In short, it runs like this: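 Recombinant human JAK1 or JAK2 kinase domain phosphorylating a 5-carboxyfluorescein-labelled JAK3-derived peptide; 30 min at 22 °C, stopped with EDTA (50 mM final). Phosphorylated product measured as a fraction of total peptide by Caliper LabChip mobility shift.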

The test system of assay [3] is JAK1-dependent STAT6 phosphorylation downstream of IL-13 stimulation in BEAS-2B human bronchial epithelial cells. Put plainly: JAK1 pathway assay in BEAS-2B cells (IL-13-pSTAT6, MSD). The class given is cell-based. The note with it: BEAS-2B cells, IL-13 stimulation, read-out: IL-13 p-STAT6 BEAS-2B IC50.

Where two headings read alike, the source gives them in different places.

Chain of isolated recombinant JAK2 kinase domain (O60674 849-1124): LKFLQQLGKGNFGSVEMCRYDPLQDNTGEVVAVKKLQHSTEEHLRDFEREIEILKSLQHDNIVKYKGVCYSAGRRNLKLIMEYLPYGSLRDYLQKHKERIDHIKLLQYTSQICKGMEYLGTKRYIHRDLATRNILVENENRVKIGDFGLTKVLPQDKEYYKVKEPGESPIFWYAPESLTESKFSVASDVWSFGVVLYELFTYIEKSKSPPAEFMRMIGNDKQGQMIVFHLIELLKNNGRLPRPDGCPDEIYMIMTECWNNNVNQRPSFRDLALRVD
Chain of isolated recombinant JAK1 kinase domain (P23458 875-1153): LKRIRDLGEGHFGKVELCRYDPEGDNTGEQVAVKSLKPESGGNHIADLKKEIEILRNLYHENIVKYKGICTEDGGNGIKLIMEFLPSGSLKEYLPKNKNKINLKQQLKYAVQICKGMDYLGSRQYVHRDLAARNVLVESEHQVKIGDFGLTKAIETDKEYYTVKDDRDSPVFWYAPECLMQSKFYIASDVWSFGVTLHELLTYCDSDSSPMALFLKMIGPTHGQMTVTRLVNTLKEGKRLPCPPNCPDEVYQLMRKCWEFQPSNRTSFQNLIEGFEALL

Turning to `N#CCC1(n2cc(C(N)=O)c(NC(=O)C3CC3)n2)CCN(Cc2ccc(-c3ccn(CC(F)(F)F)n3)c(F)c2)CC1` [Example 190, 1-[4-(cyanomethyl)-1-[[3-fluoro-4-[1-(2,2,2-trifluoroethyl)pyrazol-3-yl]phenyl]methyl]-4-piperidyl]-3-(cyclopropanecarbonylamino) pyrazole-4-carboxamide], the figures for the Ki in assay [1] and in assay [2] were 1.1 nM and 11 nM, respectively. Also, the concentration for half-maximal inhibition (IC50) (in general, the concentration that gives 50% inhibition) in assay [3] (Homo sapiens, BEAS-2B) was determined as 93 nM.

In the case of `N#CCC1(n2cc(C(N)=O)c(NC(=O)C3CC3)n2)CCN(Cc2ccc(-n3nccn3)c(O)c2)CC1` [Example 277, 1-[4-(cyanomethyl)-1-[[3-hydroxy-4-(triazol-2-yl)phenyl]methyl]-4-piperidyl]-3-(cyclopropanecarbonylamino) pyrazole-4-carboxamide], the figures for the inhibition constant (Ki) in assay [1] and in assay [2] were 0.74 nM and 1.9 nM, respectively. For the same compound, the IC50 in assay [3] (Homo sapiens, BEAS-2B) worked out at 40 nM.

For the compound `N#CCC1(n2cc(C(N)=O)c(NC(=O)C3CC3)n2)CCN(C(=O)NC2CC(F)(F)C2)CC1` [Example 21, 4-(4-Carbamoyl-3-(cyclopropanecarboxamido)-1H-pyrazol-1-yl)-4-(cyanomethyl)-N-(3,3-difluorocyclobutyl) piperidine-1-carboxamide], the figures for the Ki in assay [1] and in assay [2] were 2.3 nM and 48.4 nM, respectively. Besides, the IC50 in assay [3] (Homo sapiens, BEAS-2B) is above 1000 nM.

On to `COC(=O)Nc1nn(C2(CC#N)CCN(Cc3ccc(-c4ccccc4)nc3)CC2F)cc1C(N)=O` (stereo not drawn) [Example 196, methyl N-[4-carbamoyl-1-[4-(cyanomethyl)-3-fluoro-1-[(6-phenyl-3-pyridyl)methyl]-4-piperidyl]pyrazol-3-yl]carbamate], for which the inhibition constant Ki (usually the equilibrium dissociation constant of an inhibitor or competing ligand from its target) is 0.26 nM in assay [1] and 0.27 nM in assay [2]. Moreover, the IC50 in assay [3] (Homo sapiens, BEAS-2B) was 30 nM.

Consider `N#CCC1(n2cc(C(N)=O)c(NC(=O)C3CC3)n2)CCC(Oc2ccc(-c3ccccc3)cc2)CC1` (single isomer, unassigned) [Example 210, 1-(4-([1,1′-Biphenyl]-4-yloxy)-1-(cyanomethyl)cyclohexyl)-3-(cyclopropanecarboxamido)-1H-pyrazole-4-carboxamide], for which the figures for the Ki in assay [1] and in assay [2] were 2.1 nM and 5.1 nM, respectively. Moreover, the IC50 in assay [3] turned out to be 75 nM.

On to `N#CCC1(n2cc(C(N)=O)c(NC(=O)C3CC3)n2)CCN(Cc2cc(O)c(-c3ccccc3)cc2F)CC1F` (stereo not drawn) [Example 207, 1-[4-(cyanomethyl)-3-fluoro-1-[(2-fluoro-5-hydroxy-4-phenyl-phenyl)methyl]-4-piperidyl]-3-(cyclopropanecarbonylamino) pyrazole-4-carboxamide], for which the inhibition constant Ki is 0.11 nM in assay [1] and 0.13 nM in assay [2]. Also, the IC50 in assay [3] (Homo sapiens, BEAS-2B) came out at 29 nM.

On to `CN(C)C(=O)c1cccc(-c2ccc(CN3CCC(CC#N)(n4cc(C(N)=O)c(NC(=O)C5CC5)n4)CC3)cc2)c1` [Example 145, 1-[4-(cyanomethyl)-1-[[4-[3-(dimethylcarbamoyl)phenyl]phenyl]methyl]-4-piperidyl]-3-(cyclopropanecarbonylamino) pyrazole-4-carboxamide], for which the inhibition constant (Ki) stood at 3.1 nM in assay [1] and 15.5 nM in assay [2]. Also, the IC50 in assay [3] (Homo sapiens, BEAS-2B) is above 1000 nM.

Take `CC(=O)Nc1cc(CN2CCC(CC#N)(n3cc(C(N)=O)c(NC(=O)C4CC4)n3)CC2)ccc1Cl` [Example 81]: the Ki in assay [1] amounted to 4.4 nM; in assay [2], 38.4 nM. Further, the 50% inhibitory concentration (IC50) in assay [3] (Homo sapiens, BEAS-2B) is above 1000 nM.

On to `COC(=O)Nc1nn(C2(CC#N)CCN(Cc3cc(O)c(-c4ccco4)cc3F)CC2F)cc1C(N)=O` (stereo not drawn) [Example 238, methyl N-[4-carbamoyl-1-[4-(cyanomethyl)-3-fluoro-1-[[2-fluoro-4-(2-furyl)-5-hydroxy-phenyl]methyl]-4-piperidyl]pyrazol-3-yl]carbamate], for which the inhibitory constant (Ki) in assay [1] amounted to 0.29 nM; in assay [2], 0.35 nM. The IC50 in assay [3] (Homo sapiens, BEAS-2B) is 18 nM.
